We go through 1 compound from paper PMC8740755 (Proceedings of the National Academy of Sciences of the …, 2021).

The structures appear in SMILES notation.

For the assay, the target named is WipA (Legionella pneumophila, UniProt Q5ZS02).
Chain of WipA (Q5ZS02 1-520): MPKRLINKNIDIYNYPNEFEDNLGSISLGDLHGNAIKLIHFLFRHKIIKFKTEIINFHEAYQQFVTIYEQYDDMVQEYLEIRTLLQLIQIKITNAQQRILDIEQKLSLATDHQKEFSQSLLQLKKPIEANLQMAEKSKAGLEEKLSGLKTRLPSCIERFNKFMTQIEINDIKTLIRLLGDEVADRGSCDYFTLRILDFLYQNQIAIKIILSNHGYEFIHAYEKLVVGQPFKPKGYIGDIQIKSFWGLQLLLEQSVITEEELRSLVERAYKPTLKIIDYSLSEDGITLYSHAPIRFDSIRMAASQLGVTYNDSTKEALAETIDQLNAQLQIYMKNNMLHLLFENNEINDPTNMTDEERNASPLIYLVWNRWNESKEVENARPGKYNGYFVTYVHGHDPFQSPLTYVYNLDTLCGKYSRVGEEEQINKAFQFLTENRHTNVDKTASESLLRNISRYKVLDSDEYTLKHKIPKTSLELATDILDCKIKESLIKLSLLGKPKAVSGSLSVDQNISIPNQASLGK

With `O=[N+]([O-])c1ccc(OP(=O)(O)O)cc1` [pNPP], the “free phosphate by malachite green assay” value was “exhibited robust activity, and a mutation in its active site abolished such activity”.
